Laboratory results as given in patent US10653688B2, “6-(6-membered heteroaryl and aryl)isoquinolin-3-yl carboxamides and preparation and use thereof” (Samumed, LLC, priority 2017, dated 2020).
Read-outs that look alike come from different tables or passages of the source.

Key:
[1] = tested on: Wnt activity (SW480 colon carcinoma cells stably expressing the Sp5-Luc reporter gene); experiment: Wnt activity screening assay (Sp5-Luc reporter gene assay); format: cell-based, human; conditions: Homo sapiens; for EC50: 36 to 48 hours
How it was run: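 SW480 colon carcinoma cells stably carrying a lentiviral luciferase reporter driven by an Sp5 promoter with eight TCF/LEF sites, plated at 4,000 cells/well in DMEM with 1% FBS. Compound exposure for 36–48 h at 37 °C, then luminescence read. Signals normalized to DMSO; EC50 from four-parameter nonlinear fit.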

recombinant GSK3β kinase = recombinant GSK3β kinase (Homo sapiens (Human), UniProt P49841); experiment: GSK3β kinase assay (Ser/Thr 09 peptide Z-lyte, FRET); format: biochemical;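 also: FRET read-out as coumarin over fluorescein emission ratio, compounds incubated one hour at room temperature, IC50 from dose-response curve fit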
[2] = tested on: SW480 colon carcinoma cells; experiment: Cell viability assay (CellTiter-Glo); format: cell-based, human; conditions: Homo sapiens, 96 h, four days, CellTiter-Glo
[3] = tested on: LL29 cells (primary human fibroblasts derived from IPF patients), α-smooth muscle actin; experiment: Inhibition of fibrotic process: TGF-β1-treated primary human fibroblasts, αSMA staining; format: cell-based; conditions: Homo sapiens, Fibroblast; for EC50: 96 h, TGF-β1 20 ng/mL, 4 days, % cells positive for αSMA; for inhibition at 10 µM: read-out: percent inhibition at 10 μM (given for EC50 >10 μM), TGF-β1, αSMA, 10 μM;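 as to all read-outs here: controls were TGF-β1-stimulated wells with DMSO vehicle as the positive reference and cells given DMSO alone as the negative reference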
Experimental: Representative compounds were screened using primary human fibroblasts (derived from IPF patients) treated with TGF-β1 to determine their ability to inhibit the fibrotic process.
Human Fibroblast Cell Culture:
Each compound was dissolved in DMSO as a 10 mM stock and used to prepare compound source plates. […] LL29 cells were plated at 1,500 cells/well in 70 μL/well F12 medium supplemented with 1% Fetal Bovine Serum. […] Wells treated with TGF-β1 and containing DMSO were used as positive control, and cells with only DMSO were negative control. Cells were incubated at 37° C. and 5% CO2 for 4 days. Following incubation for 4 days, SYTOX green nucleic acid stain (Life Technologies [Thermo Fisher Scientific]) was added to the wells at a final concentration of 1 μM and incubated at room temperature for 30 min. Cells were then fixed using 4% formaldehyde (Electron Microscopy Sciences), washed 3 times with PBS followed by blocking and permeabilization using 3% Bovine Serum Albumin (BSA; Sigma) and 0.3% Triton X-100 (Sigma) in PBS.

[4] = tested on: IL-6 in human peripheral blood mononuclear cells (huPBMCs); experiment: IL-6 inhibition in LPS-stimulated human peripheral blood mononuclear cells (HTRF); format: cell-based; conditions: Homo sapiens, PBMC; for EC50: LPS 50 ng/mL, 22 hours, IL-6 HTRF
How it was run: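 Fresh normal human PBMCs at 1×10e6 cells/mL in RPMI with 1% FBS received compound, then 50 ng/mL E. coli 0111:B4 LPS 2 h later, and were incubated a further 22 h at 37° C. IL-6 read by HTRF (665/620 nm ratio), normalized to DMSO; EC50 from 4-parameter fit.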

[5] = target: recombinant DYRK1A kinase (Homo sapiens (Human), UniProt Q13627); experiment: DYRK1A kinase assay (Ser/Thr 18 peptide Z-lyte, FRET)
[6] = GSK3β kinase, head says EC50, method says IC50, ATP 46 μM
[7] = DYRK1A kinase, head says EC50, method says IC50, ATP 30 μM

Chain of recombinant GSK3β kinase (P49841 whole entry): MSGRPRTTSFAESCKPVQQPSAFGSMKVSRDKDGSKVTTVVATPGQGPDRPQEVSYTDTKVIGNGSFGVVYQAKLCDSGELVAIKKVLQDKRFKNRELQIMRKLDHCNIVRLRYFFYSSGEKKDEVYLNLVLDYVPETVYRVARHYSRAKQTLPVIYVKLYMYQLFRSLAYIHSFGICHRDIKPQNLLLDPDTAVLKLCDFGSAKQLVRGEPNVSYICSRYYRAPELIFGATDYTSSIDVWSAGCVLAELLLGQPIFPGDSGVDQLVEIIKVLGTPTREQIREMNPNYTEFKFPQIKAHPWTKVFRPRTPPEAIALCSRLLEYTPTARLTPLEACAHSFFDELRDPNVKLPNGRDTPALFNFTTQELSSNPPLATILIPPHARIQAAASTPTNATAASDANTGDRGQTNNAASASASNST

## CC(C)(C)Nc1cncc(-c2ccc3cnc(NC(=O)c4ccnc(N5CCOCC5)c4)cc3c2)n1 [Compound 102, N-(6-(6-(tert-Butylamino)pyrazin-2-yl)isoquinolin-3-yl)-2-morpholinoisonicotinamide]
[1]
  EC50: 153 nM
Recombinant GSK3β kinase; [6]
  EC50: > 10000 nM
[2]
  EC50: 226 nM
[3]
  EC50: 94 nM
[4]
  EC50: 401 nM
[5]; [7]
  EC50: 19 nM

## O=C(Nc1cc2cc(-c3cncc(NCC4(F)CNC4)n3)ccc2cn1)C1CC1 [Compound 103, N-(6-(6-(((3-Fluoroazetidin-3-yl)methyl)amino)pyrazin-2-yl)isoquinolin-3-yl)cyclopropanecarboxamide]
[1]
  EC50: 119 nM
Recombinant GSK3β kinase; [6]
  EC50: 3 nM
[2]
  EC50: 253 nM
[3]
  EC50: 547 nM
[4]
  EC50: 146 nM
[5]; [7]
  EC50: 1 nM

## O=C(Nc1cc2cc(-c3cncc(NCC4(F)CNC4)n3)ccc2cn1)c1ccc(F)cc1 [Compound 104, 4-fluoro-N-(6-(6-(((3-Fluoroazetidin-3-yl)methyl)amino)pyrazin-2-yl)isoquinolin-3-yl)benzamide]
[1]
  EC50: 63 nM
Recombinant GSK3β kinase; [6]
  EC50: 4390 nM
[2]
  EC50: 119 nM
[3]
  EC50: 284 nM
[4]
  EC50: 1170 nM
[5]; [7]
  EC50: 1 nM

## O=C(Nc1cc2cc(-c3cncc(NC4CCNCC4)n3)ccc2cn1)C1CCC1 [Compound 105, N-(6-(6-(Piperidin-4-ylamino)pyrazin-2-yl)isoquinolin-3-yl) cyclobutanecarboxamide]
[1]
  EC50: 261 nM
Recombinant GSK3β kinase
  EC50: 56 nM
[2]
  EC50: 312 nM
[3]
  EC50: 226 nM
[4]
  EC50: 207 nM
[5]
  EC50: 1 nM

## O=C(Nc1cc2cc(-c3cncc(NC4CCNCC4)n3)ccc2cn1)C1CC(F)(F)C1 [Compound 106, 3,3-Difluoro-N-(6-(6-(piperidin-4-ylamino)pyrazin-2-yl)isoquinolin-3-yl) cyclobutane-1-carboxamide]
[1]
  EC50: 381 nM
Recombinant GSK3β kinase; [6]
  EC50: 50 nM
[2]
  EC50: 8420 nM
[3]
  EC50: 27 nM
[4]
  EC50: 369 nM
[5]; [7]
  EC50: 1 nM

## O=C(Nc1cc2cc(-c3cncc(NC4CCNCC4)n3)ccc2cn1)C1CCCC1 [Compound 107, N-(6-(6-(Piperidin-4-ylamino)pyrazin-2-yl)isoquinolin-3-yl) cyclopentanecarboxamide]
[1]
  EC50: 266 nM
Recombinant GSK3β kinase; [6]
  EC50: 31 nM
[2]
  EC50: 5910 nM
[3]
  EC50: 1270 nM
[4]
  EC50: 119 nM
[5]; [7]
  EC50: 1 nM

## O=C(Nc1cc2cc(-c3cncc(NC4CCNCC4)n3)ccc2cn1)C1CCC(F)(F)CC1 [Compound 108, 4,4-Difluoro-N-(6-(6-(piperidin-4-ylamino)pyrazin-2-yl)isoquinolin-3-yl) cyclohexane-1-carboxamide]
[1]
  EC50: 457 nM
Recombinant GSK3β kinase; [6]
  EC50: 92 nM
[2]
  EC50: 1560 nM
[3]
  EC50: 3390 nM
[4]
  EC50: 385 nM
[5]; [7]
  EC50: 2 nM

## O=C(Nc1cc2cc(-c3cncc(NC4CCNCC4)n3)ccc2cn1)c1ccc(F)cc1 [Compound 110, 4-fluoro-N-(6-(6-(piperidin-4-ylamino)pyrazin-2-yl)isoquinolin-3-yl)benzamide]
[1]
  EC50: 116 nM
Recombinant GSK3β kinase; [6]
  EC50: 4320 nM
[2]
  EC50: 326 nM
[3]
  EC50: 345 nM
[4]
  EC50: 1180 nM
[5]; [7]
  EC50: 2 nM

## O=C(Nc1cc2cc(-c3cncc(N[C@H]4CCNC[C@@H]4F)n3)ccc2cn1)C1CC1 [Compound 111, N-(6-(6-(((3S,4S)-3-Fluoropiperidin-4-yl)amino)pyrazin-2-yl)isoquinolin-3-yl)cyclopropanecarboxamide]
[1]
  EC50: 9 nM
Recombinant GSK3β kinase
  EC50: 4 nM
[2]
  EC50: 18 nM
[3]
  EC50: 1520 nM
[4]
  EC50: 106 nM
[5]
  EC50: 1 nM

## O=C(Nc1cc2cc(-c3cncc(N[C@H]4CCNC[C@@H]4F)n3)ccc2cn1)c1ccc(F)cc1 [Compound 112, 4-Fluoro-N-(6-(6-(((3S,4S)-3-fluoropiperidin-4-yl)amino)pyrazin-2-yl)isoquinolin-3-yl)benzamide]
[1]
  EC50: 9 nM
Recombinant GSK3β kinase; [6]
  EC50: 1830 nM
[2]
  EC50: 7 nM
[3]
  EC50: 975 nM
[4]
  EC50: 1060 nM
[5]; [7]
  EC50: 8 nM

## CN1CCC(Nc2cncc(-c3ccc4cnc(NC(=O)C5CCC5)cc4c3)n2)CC1 [Compound 113, N-(6-(6-((1-Methylpiperidin-4-yl)amino)pyrazin-2-yl)isoquinolin-3-yl) cyclobutanecarboxamide]
[1]
  EC50: 247 nM
Recombinant GSK3β kinase; [6]
  EC50: 67 nM
[2]
  EC50: 283 nM
[3]
  EC50: > 10000 nM
  inhibition at 10 µM: 27.3%
[4]
  EC50: 383 nM
[5]; [7]
  EC50: 1 nM

## CN1CCC(Nc2cncc(-c3ccc4cnc(NC(=O)C5CCCC5)cc4c3)n2)CC1 [Compound 114, N-(6-(6-((1-Methylpiperidin-4-yl)amino)pyrazin-2-yl)isoquinolin-3-yl) cyclopentanecarboxamide]
[1]
  EC50: 438 nM
Recombinant GSK3β kinase; [6]
  EC50: 48 nM
[2]
  EC50: 474 nM
[3]
  EC50: 175 nM
[4]
  EC50: 334 nM
[5]; [7]
  EC50: 1 nM

## CN1CCC(Nc2cncc(-c3ccc4cnc(NC(=O)c5ccc(F)cc5)cc4c3)n2)CC1 [Compound 115, 4-fluoro-N-(6-(6-((1-methylpiperidin-4-yl)amino)pyrazin-2-yl)isoquinolin-3-yl)benzamide]
[1]
  EC50: 39 nM
Recombinant GSK3β kinase
  EC50: 8480 nM
[2]
  EC50: 5120 nM
[3]
  EC50: > 10000 nM
  inhibition at 10 µM: 12.2%
[4]
  EC50: 3190 nM
[5]
  EC50: 1 nM

## CC(C)N1CCC(Nc2cncc(-c3ccc4cnc(NC(=O)C5CC5)cc4c3)n2)CC1 [Compound 116, N-(6-(6-((1-Isopropylpiperidin-4-yl)amino)pyrazin-2-yl)isoquinolin-3-yl) cyclopropanecarboxamide]
[1]
  EC50: 198 nM
Recombinant GSK3β kinase; [6]
  EC50: 58 nM
[2]
  EC50: 485 nM
[3]
  EC50: 105 nM
[4]
  EC50: 358 nM
[5]; [7]
  EC50: 1 nM

## CC(C)N1CCC(Nc2cncc(-c3ccc4cnc(NC(=O)C5CC(F)(F)C5)cc4c3)n2)CC1 [Compound 117, 3,3-Difluoro-N-(6-(6-((1-isopropylpiperidin-4-yl)amino)pyrazin-2-yl)isoquinolin-3-yl)cyclobutane-1-carboxamide]
[1]
  EC50: 1470 nM
Recombinant GSK3β kinase; [6]
  EC50: 128 nM
[2]
  EC50: 1960 nM
[3]
  EC50: 170 nM
[4]
  EC50: 1360 nM
[5]; [7]
  EC50: 2 nM

## CC(C)N1CCC(Nc2cncc(-c3ccc4cnc(NC(=O)C5CCCC5)cc4c3)n2)CC1 [Compound 118, N-(6-(6-((1-Isopropylpiperidin-4-yl)amino)pyrazin-2-yl)isoquinolin-3-yl) cyclopentanecarboxamide]
[1]
  EC50: 833 nM
Recombinant GSK3β kinase; [6]
  EC50: 78 nM
[2]
  EC50: 1190 nM
[3]
  EC50: 148 nM
[4]
  EC50: 932 nM
[5]; [7]
  EC50: 1 nM

## CC(C)N1CCC(Nc2cncc(-c3ccc4cnc(NC(=O)c5ccc(F)cc5)cc4c3)n2)CC1 [Compound 119, 4-Fluoro-N-(6-(6-((1-isopropylpiperidin-4-yl)amino)pyrazin-2-yl)isoquinolin-3-yl)benzamide]
[1]
  EC50: > 10000 nM
[1]; read-out: percent inhibition at 10 μM (given for EC50 >10 μM), 10 μM
  inhibition at 10 µM: 23.7%
Recombinant GSK3β kinase; [6]
  EC50: > 10000 nM
[2]
  EC50: 9020 nM
[3]
  EC50: > 10000 nM
  inhibition at 10 µM: 7.7%
[4]
  EC50: > 10000 nM
[4]; read-out: percent inhibition at 10 μM (given for EC50 >10 μM), LPS, IL-6, 10 μM
  inhibition at 10 µM: 6.1%
[5]; [7]
  EC50: 2 nM

## CN1CCN(c2cc(C(=O)Nc3cc4cc(-c5cncc(N(C)C)n5)ccc4cn3)ccn2)CC1 [Compound 120, N-(6-(6-(Dimethylamino)pyrazin-2-yl)isoquinolin-3-yl)-2-(4-methylpiperazin-1-yl)isonicotinamide]
[1]
  EC50: 2770 nM
Recombinant GSK3β kinase; [6]
  EC50: > 10000 nM
[2]
  EC50: 3320 nM
[3]
  EC50: 620 nM
[4]
  EC50: 8890 nM
[5]; [7]
  EC50: 7 nM
